In PubChem BioAssay (NCI) one finds TGI data, which are given here for eleven molecules.

Among the test systems are HCT-15 colon; HL-60(TB) leukemia; HT29 colon; RPMI-8226 leukemia; RXF 393 renal; SF-268 CNS; SK-MEL-2 melanoma; SK-MEL-5 melanoma; SK-OV-3 ovarian; SN12C renal; UACC-257 melanoma; UO-31 renal; OVCAR-3 ovarian; A498 renal; MDA-N.
Holding throughout (assay): NCI-60 cell line screen, 48 h

Values joined by “and” are separate entries in the source; they are usually repeats but may differ in a detail not shown here. Equal entries are not always repeated.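 Tested at 5 concentrations; 48 h exposure; 96-well plates; endpoints linearly interpolated, else capped at highest concentration. Definition used: TGI = concentration required for complete inhibition of growth.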

As for `Cc1ccc(F)c2c(=O)cc(-c3ccccc3)[nH]c12`, the TGI with HCT-15 colon, with HL-60(TB) leukemia, in the experiment with HT29 colon, in the experiment with RPMI-8226 leukemia, in the experiment with RXF 393 renal and in the experiment on SF-268 CNS was more than 100 µM throughout. For the same molecule, the TGI in the experiment on SK-MEL-2 melanoma, with SK-MEL-5 melanoma, in the experiment on SK-OV-3 ovarian, in the experiment on SN12C renal, in the experiment on UACC-257 melanoma and in the experiment on UO-31 renal was more than 100 µM throughout.
With `CN(C)Cc1[nH]c2ccccc2c1C(=O)c1ccccc1`, the TGI in the experiment with HCT-15 colon, in the experiment on HL-60(TB) leukemia, in the experiment with HT29 colon, in the experiment with OVCAR-3 ovarian, in the experiment on RPMI-8226 leukemia and in the experiment with SF-268 CNS was more than 100 µM throughout. Also, the TGI with SK-MEL-2 melanoma, with SK-MEL-5 melanoma, with UACC-257 melanoma and with UO-31 renal was more than 100 µM each time.
For `COc1ccc(/C=C(\Cl)c2ccc(OC)cc2)cc1`, the TGI in the experiment on A498 renal, with HL-60(TB) leukemia, in the experiment on OVCAR-3 ovarian, with RPMI-8226 leukemia, with SF-268 CNS and in the experiment on SK-MEL-5 melanoma was more than 100 µM throughout. The TGI with SK-OV-3 ovarian, in the experiment on SN12C renal, in the experiment on UACC-257 melanoma and in the experiment on UO-31 renal was more than 100 µM throughout.
On to `CC(=O)C1=NN(c2ccccc2)C2(S1)SC(c1ccccc1)(c1ccccc1)c1ccccc12` (configuration not stated), for which the TGI in the experiment with A498 renal, with HCT-15 colon, with HL-60(TB) leukemia, in the experiment on HT29 colon, in the experiment with OVCAR-3 ovarian and with RPMI-8226 leukemia was more than 100 µM each time. Further, the TGI was 65.7 µM with RXF 393 renal; more than 100 µM in the experiment with SF-268 CNS; 78.7 µM in the experiment on SK-MEL-2 melanoma; more than 100 µM with SK-OV-3 ovarian; more than 100 µM in the experiment with SN12C renal; more than 100 µM with UACC-257 melanoma. In the experiment on UO-31 renal, this molecule yielded a TGI of more than 100 µM.
With `C(=N/NC1=NCCN1)/c1c2ccccc2c(/C=N\NC2=NCCN2)c2ccccc12`, the TGI in the experiment with A498 renal is 0.273 µM and 1.8 µM and 2.3 µM; in the experiment on HCT-15 colon, 214 µM; in the experiment with HL-60(TB) leukemia, 1.13 µM and 2.33 µM and 0.725 µM; in the experiment on HT29 colon, 1.36 µM and 1.41 µM and 2.04 µM; in the experiment with MDA-N it was 0.69 µM and 1.18 µM; in the experiment on OVCAR-3 ovarian it was 0.561 µM and 0.449 µM and 1.75 µM. Also, the TGI in the experiment on RPMI-8226 leukemia is 0.798 µM and 2.11 µM and 1.26 µM; with RXF 393 renal it was 0.829 µM and 2.08 µM and 0.596 µM; with SF-268 CNS, 0.558 µM and 0.722 µM and 0.747 µM; in the experiment with SK-MEL-2 melanoma, 0.271 µM and 0.747 µM and 0.422 µM; with SK-MEL-5 melanoma, 0.214 µM and 0.896 µM and 0.761 µM; with SK-OV-3 ovarian, 0.526 µM and 1.82 µM and 3.48 µM. Further, the TGI is 0.545 µM and 1.72 µM and 1.94 µM with SN12C renal; 0.393 µM and 0.902 µM and 0.801 µM in the experiment with UACC-257 melanoma.
Consider `O=C1c2c(ccc3c2CCCC3)CC1Cc1ccc2c(c1)CCCC2` (configuration not stated), for which the TGI in the experiment with A498 renal was more than 100 µM; in the experiment with HCT-15 colon, more than 100 µM; with HL-60(TB) leukemia, 46.9 µM; in the experiment on HT29 colon, more than 100 µM; in the experiment on MDA-N, more than 100 µM; in the experiment on OVCAR-3 ovarian, more than 100 µM. Besides, the TGI in the experiment with RPMI-8226 leukemia was more than 100 µM; in the experiment on RXF 393 renal, 78.5 µM; with SF-268 CNS, more than 100 µM; in the experiment on SK-MEL-2 melanoma, more than 100 µM; in the experiment on SK-MEL-5 melanoma it was more than 100 µM; in the experiment on SK-OV-3 ovarian, more than 100 µM. For the same molecule, the TGI is more than 100 µM in the experiment with SN12C renal, 71 µM in the experiment on UACC-257 melanoma and more than 100 µM with UO-31 renal.
Regarding `COc1ccc(C2C(Cl)C(=O)N2NC(=O)c2ccccc2O)cc1OC` (configuration not stated), the TGI in the experiment with A498 renal, with HCT-15 colon, with HL-60(TB) leukemia, with HT29 colon, in the experiment with OVCAR-3 ovarian and in the experiment with RXF 393 renal was more than 100 µM in each case. Also, the TGI with SF-268 CNS, in the experiment on SK-MEL-2 melanoma, in the experiment on SK-MEL-5 melanoma, in the experiment with SK-OV-3 ovarian, in the experiment with SN12C renal and in the experiment with UACC-257 melanoma was more than 100 µM in each case. Moreover, the TGI in the experiment with UO-31 renal is more than 100 µM.
Turning to `CC#Cc1c(C#CC)c(OC)c2c(c1OC)C(=O)c1ccccc1C2=O`, the TGI with A498 renal, in the experiment with HCT-15 colon, in the experiment on HL-60(TB) leukemia, in the experiment with HT29 colon, in the experiment on OVCAR-3 ovarian and in the experiment on RPMI-8226 leukemia was more than 100 µM throughout. The TGI in the experiment on RXF 393 renal was 55.1 µM; in the experiment with SF-268 CNS it was 78.6 µM; in the experiment on SK-MEL-2 melanoma, more than 100 µM; with SK-MEL-5 melanoma it was more than 100 µM; in the experiment with SK-OV-3 ovarian it was more than 100 µM; with SN12C renal, more than 100 µM. Further, the TGI in the experiment on UACC-257 melanoma and in the experiment with UO-31 renal was more than 100 µM each time.
`O=C1c2ccccc2C(=O)c2c(O)c(NCCNCCO)cc(O)c21`: the TGI was 21 µM with A498 renal; 14.1 µM in the experiment on HCT-15 colon; 14.1 µM in the experiment with HL-60(TB) leukemia; 11.5 µM in the experiment with HT29 colon; 15.1 µM with OVCAR-3 ovarian; 21.4 µM in the experiment with RPMI-8226 leukemia. The TGI in the experiment with RXF 393 renal turned out to be 13.4 µM; with SF-268 CNS it was 15.5 µM; in the experiment with SK-MEL-2 melanoma, 15.8 µM; with SK-MEL-5 melanoma it was 13.1 µM; in the experiment on SN12C renal, 14.9 µM; in the experiment on UACC-257 melanoma it was 19.6 µM. Further, in the experiment with UO-31 renal, the TGI was determined as 11.7 µM.
As to `O=C1Cc2ccccc2CCc2ccsc21`, the TGI in the experiment on A498 renal, in the experiment with HCT-15 colon, in the experiment on HL-60(TB) leukemia, in the experiment on HT29 colon, in the experiment on OVCAR-3 ovarian and in the experiment on RPMI-8226 leukemia was more than 100 µM each time. For the same molecule, the TGI in the experiment with RXF 393 renal, with SF-268 CNS, with SK-MEL-2 melanoma, in the experiment with SK-MEL-5 melanoma, with SK-OV-3 ovarian and in the experiment on SN12C renal was more than 100 µM in each case. Also, the TGI in the experiment on UACC-257 melanoma and in the experiment with UO-31 renal was more than 100 µM throughout.
For `CC1(C)N=C(Oc2ccccc2)n2nccc2N1`, the TGI in the experiment on A498 renal, in the experiment on HCT-15 colon, in the experiment on HL-60(TB) leukemia, with HT29 colon, in the experiment with OVCAR-3 ovarian and in the experiment with RPMI-8226 leukemia was more than 100 µM each time. The TGI in the experiment on RXF 393 renal, in the experiment on SF-268 CNS, with SK-MEL-2 melanoma, with SK-MEL-5 melanoma, in the experiment with SK-OV-3 ovarian and in the experiment on SN12C renal was more than 100 µM throughout. The TGI in the experiment with UACC-257 melanoma and in the experiment on UO-31 renal was more than 100 µM in each case.
